Data: patent US20240165259A1, “BIOORTHOGONAL REACTION SUITABLE FOR CLICK/UNCLICK APPLICATIONS” (DANA-FARBER CANCER INSTITUTE, INC., priority 2021, published 2024)

Biological target: T1, HaloTag protein (Rhodococcus rhodochrous, UniProt P0A3G2, A155T/A167V/A172T/A224E/C128F/C176G/D78G/E160K/E257K/H272N/K175M/K195N/L47V/L88M/N227D/S58T/T264A/Y273L/Y87F)
T1 construct: made in house; host or cells: E. coli (the text prints transformation into DH5a; BL21(DE3) was also purchased)
Test: HaloTag protein labeling, in-gel fluorescence (time- and concentration-dependent)
Assay type: biochemical
Details: HaloTag protein conjugated to alkyne 21′, 200 μM 22′, room temperature
Experimental: The viability of the reaction was evaluated both in vitro and in cells (FIG. 14A-FIG. 14B). Purified recombinant HaloTag protein (Los et al., ACS Chem. Biol. 3(6):373-382 (2008); Murrey et al., J. Am. Chem. Soc. 137(35):11461-11475 (2015)) was incubated with HaloTag linker-conjugated difluoropropargyl ether 21′ for 10 minutes at room temperature in pH 7.0 phosphate buffer to provide alkyne-conjugated protein. This protein was then treated with 200 μM TAMRA-N-methylhydroxylamine 22′ and analyzed at various time points by in-gel fluorescence.
Buffer A: pH 7.0, 50 mM NaH2PO4, 20 mM NaCl
A stock solution of HaloTag® protein (15.3 μL, 2.01 mg/mL in buffer A) was added to 29.7 μL of buffer A to prepare a HaloTag® working solution (solution A, 19.7 μM, 45 μL). […]
A solution of alkyne 21′ in DMSO (700 μM) was added to reactions C (0.22 μL) and D (1.10 μL). […] In-gel fluorescence was imaged with a Typhoon™ FLA 9500 (GE) at 532 nm with a photomultiplier tube (PMT) setting of 500 V. The experiment was carried out in triplicate (FIG. 21A-FIG. 21B). […]
A solution of alkyne 21′ in DMSO (700 μM) was added to reactions C (0.22 μL) and D (0.88 μL). […] In-gel fluorescence was imaged with a Typhoon™ FLA 9500 (GE) at 532 nm with a photomultiplier tube (PMT) setting of 500 V. The experiment was carried out in triplicate (FIG. 22A-FIG. 22B).

T1 sequence (P0A3G2 other isoform, or with tags, fused parts or gaps with the stated changes): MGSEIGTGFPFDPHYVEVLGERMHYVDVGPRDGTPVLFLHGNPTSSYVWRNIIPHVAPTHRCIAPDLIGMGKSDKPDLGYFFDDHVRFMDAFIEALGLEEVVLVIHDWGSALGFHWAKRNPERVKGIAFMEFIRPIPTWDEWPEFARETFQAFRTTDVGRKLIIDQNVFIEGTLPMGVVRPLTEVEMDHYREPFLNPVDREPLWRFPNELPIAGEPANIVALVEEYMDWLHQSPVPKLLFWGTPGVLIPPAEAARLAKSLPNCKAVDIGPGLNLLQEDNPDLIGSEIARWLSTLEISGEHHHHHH

CN(O)CCOCCNC(=O)c1ccc2c(c1)C1(OC2=O)c2ccc(N(C)C)cc2Oc2cc(N(C)C)ccc21 [compound 13, 3′,6′-bis(dimethylamino)-N-(2-(2-(hydroxy(methyl)amino)ethoxy)ethyl)-3-oxo-3H-spiro[isobenzofuran-1,9′-xanthene]-6-carboxamide]
time at which fluorophore-labeled protein was observed: ≤ 1 min
